Measured values as given in PMC7183711, “Co-production of gallic acid and a novel cell-associated tannase by a pigment-producing yeast, Sporidiobolus ruineniae A45.2” (Microbial Cell Factories, 2020).

Tested on: T1, purified tannase (PT); cell-associated tannase (CAT) of Sporidiobolus ruineniae A45.2
T1 construct: gene tannin acyl hydrolase; native enzyme released from cell wall with Triton X-100, Q-Sepharose purified
Assay: rhodanine assay of released gallic acid, A520; Michaelis-Menten fit
Type: biochemical, Rhodosporidiobolus ruineniae
Conditions: 100 mM sodium phosphate pH 6.5, 30 °C, 10 min; 0.25-12.5 mM methyl gallate; purified free enzyme

COC(=O)c1cc(O)c(O)c(O)c1 [methyl gallate]
Km: 2600 ± 400 µM
